Laboratory results reported in article PMC12809495, “Potential 14-3-3 binding sites in sirtuins reveal extended phosphosite-recognition modes” (Acta Crystallographica Section F: Structural Biology …, 2026).
Where two headings read alike, the source gives them in different places. Where a SMILES comes first, the peptide text is derived from it. Where no end group is shown, it is not given here. [ ]: non-standard residue; d: D form. pT = C[C@@H](OP(=O)(O)O)[C@H](N)C(=O)O; pS = N[C@@H](COP(=O)(O)O)C(=O)O

Key:
14-3-3 isoform gamma = target: T1, 14-3-3 isoform gamma (Homo sapiens, UniProt P61981); experiment: Label-free microscale thermophoresis (MST) binding, 14-3-3 gamma; conditions: 0.6 µM 14-3-3 protein, 25 mM MES pH 6.5, 5 mM MgCl2, 5 mM CaCl2, 25°C, Kd from duplicate measurements, aggr. = no successful experiment
T1 construct: His6; made in house; host or cells: Escherichia coli BL21 Rosetta (DE3)
T1 sequence (P61981 1-247): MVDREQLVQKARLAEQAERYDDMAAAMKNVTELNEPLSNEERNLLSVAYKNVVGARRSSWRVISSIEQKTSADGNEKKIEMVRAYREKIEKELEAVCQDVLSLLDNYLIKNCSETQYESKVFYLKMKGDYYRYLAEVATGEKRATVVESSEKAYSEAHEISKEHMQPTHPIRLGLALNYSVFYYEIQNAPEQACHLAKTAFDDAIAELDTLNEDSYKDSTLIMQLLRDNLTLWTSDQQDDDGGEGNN
Protocol: (§1) The binding of phosphorylated sirtuin peptides (Fig. 1 ▸) was analyzed using the change in the intrinsic fluorescence signal of the 14-3-3 proteins measured with label-free microscale thermophoresis using a Nanotemper Monolith NT.LabelFree or NT.115. A typical binding experiment using 0.6 µM 14-3-3 protein was performed in a modified MST buffer consisting of 25 mM MES pH 6.5, 5 mM MgCl2, 5 mM CaCl2. The measurements were performed at 25°C using a LED power of 10–40%. All measurements were performed at least in duplicate, and the results shown are representative measurements individually fitted using GraFit 7 (Erathicus Software, Horley, United Kingdom).
Figure 1 Classification and analysis of sirtuin PSSM results for potential 14-3-3 phosphoserine binding sites. Peptides with a gray background were not analyzed experimentally. Score is the overall PSSM score for the phosphorylation site; rank is the order within the 17 proposed sirtuin binding sites. Conserved residues in the 14-3-3 motifs are marked in green. Residues with restricted (proline) or very flexible (glycine) protein backbone or with a very large side chain (tryptophan) are marked in red. Amino acids with the same or similar hydrophobicity/size are shown in magenta. Kd values from duplicate measurements are colored green for Kd < 100 µM. Fields marked in red indicate no binding or no successful experiment. […]

14-3-3 isoform theta = target: T2, 14-3-3 isoform theta (Homo sapiens, UniProt P27348); experiment: Label-free microscale thermophoresis (MST) binding, 14-3-3 theta
T2 construct: His6; made in house; host or cells: Escherichia coli BL21 Rosetta (DE3)
T2 sequence (P27348 1-245): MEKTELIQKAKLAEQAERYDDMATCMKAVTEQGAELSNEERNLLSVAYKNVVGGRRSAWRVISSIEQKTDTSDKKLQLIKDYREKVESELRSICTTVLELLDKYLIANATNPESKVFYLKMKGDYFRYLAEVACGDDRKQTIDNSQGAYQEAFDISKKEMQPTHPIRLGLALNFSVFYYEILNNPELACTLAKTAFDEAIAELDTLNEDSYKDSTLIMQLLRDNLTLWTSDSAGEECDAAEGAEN
Protocol: as §1
(§2) Figure 1 Classification and analysis of sirtuin PSSM results for potential 14-3-3 phosphoserine binding sites. Peptides with a gray background were not analyzed experimentally. Score is the overall PSSM score for the phosphorylation site; rank is the order within the 17 proposed sirtuin binding sites. Conserved residues in the 14-3-3 motifs are marked in green. Residues with restricted (proline) or very flexible (glycine) protein backbone or with a very large side chain (tryptophan) are marked in red. Amino acids with the same or similar hydrophobicity/size are shown in magenta. Kd values from duplicate measurements are colored green for Kd < 100 µM. Fields marked in red indicate no binding or no successful experiment. TEXT PRINTED IN THE PICTURE: Sirt1 S26: Affinity estimates by MicroScale Thermophoresis [μM], 14-3-3 isoform sigma: none | Sirt1 S670: Affinity estimates by MicroScale Thermophoresis [μM], 14-3-3 isoform gamma: aggr.; Affinity estimates by MicroScale Thermophoresis [μM], 14-3-3 isoform epsilon: > 183; Affinity estimates by MicroScale Thermophoresis [μM], 14-3-3 isoform theta: 93; Affinity estimates by MicroScale Thermophoresis [μM], 14-3-3 isoform sigma: 5 | Sirt3 S103: Affinity estimates by MicroScale Thermophoresis [μM], 14-3-3 isoform gamma: aggr.; Affinity estimates by MicroScale Thermophoresis [μM], 14-3-3 isoform epsilon: > 267; Affinity estimates by MicroScale Thermophoresis [μM], 14-3-3 isoform theta: 52; Affinity estimates by MicroScale Thermophoresis [μM], 14-3-3 isoform sigma: 10 | Sirt3 S103wt: Affinity estimates by MicroScale Thermophoresis [μM], 14-3-3 isoform gamma: aggr.; Affinity estimates by MicroScale Thermophoresis [μM], 14-3-3 isoform theta: none; Affinity estimates by MicroScale Thermophoresis [μM], 14-3-3 isoform sigma: none | Sirt3 S105: Affinity estimates by MicroScale Thermophoresis [μM], 14-3-3 isoform gamma: aggr.; Affinity estimates by MicroScale Thermophoresis [μM], 14-3-3 isoform epsilon: > 215; Affinity estimates by MicroScale Thermophoresis [μM], 14-3-3 isoform theta: 60; Affinity estimates by MicroScale Thermophoresis [μM], 14-3-3 isoform sigma: none | Sirt5 S168: Affinity estimates by MicroScale Thermophoresis [μM], 14-3-3 isoform epsilon: aggr.; Affinity estimates by MicroScale Thermophoresis [μM], 14-3-3 isoform theta: aggr.; Affinity estimates by MicroScale Thermophoresis [μM], 14-3-3 isoform sigma: > 329 | Sirt6 T337: Affinity estimates by MicroScale Thermophoresis [μM], 14-3-3 isoform epsilon: > 420; Affinity estimates by MicroScale Thermophoresis [μM], 14-3-3 isoform sigma: 12 | Sirt6 S338: Affinity estimates by MicroScale Thermophoresis [μM], 14-3-3 isoform epsilon: 19; Affinity estimates by MicroScale Thermophoresis [μM], 14-3-3 isoform sigma: 24 | Sirt7 S136: Affinity estimates by MicroScale Thermophoresis [μM], 14-3-3 isoform epsilon: none; Affinity estimates by MicroScale Thermophoresis [μM], 14-3-3 isoform theta: 30; Affinity estimates by MicroScale Thermophoresis [μM], 14-3-3 isoform sigma: 49

14-3-3σ-ΔC = target: T3, 14-3-3σ-ΔC (Homo sapiens, UniProt P31947); experiment: Label-free microscale thermophoresis (MST) binding, 14-3-3σ; conditions: for Affinity estimates by MicroScale Thermophoresis, 14-3-3 isoform sigma (Kd): Fig. 1, label-free MST, 0.6 µM 14-3-3 protein, 25 mM MES pH 6.5, 5 mM MgCl2, 5 mM CaCl2, 25°C, Kd from duplicate measurements
T3 construct: His6; made in house; host or cells: Escherichia coli BL21 Rosetta (DE3)
T3 sequence (P31947 1-231 limits assumed): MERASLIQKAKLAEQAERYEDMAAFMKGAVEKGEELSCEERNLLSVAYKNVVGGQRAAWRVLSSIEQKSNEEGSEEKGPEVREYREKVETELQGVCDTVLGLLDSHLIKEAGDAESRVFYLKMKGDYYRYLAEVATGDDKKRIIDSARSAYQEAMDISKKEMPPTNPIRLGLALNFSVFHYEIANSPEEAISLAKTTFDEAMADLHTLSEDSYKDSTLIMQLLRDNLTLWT
Protocol: as §1, §2
For nine of the sites, including sites from all sirtuin isoforms except Sirt4, endecameric phosphopeptides were chemically synthesized for in vitro analysis. […]

14-3-3 isoform epsilon = target: T4, 14-3-3 isoform epsilon (Homo sapiens, UniProt P62258); experiment: Label-free microscale thermophoresis (MST) binding, 14-3-3 epsilon
T4 construct: His6; made in house; host or cells: Escherichia coli BL21 Rosetta (DE3)
T4 sequence (P62258 1-255): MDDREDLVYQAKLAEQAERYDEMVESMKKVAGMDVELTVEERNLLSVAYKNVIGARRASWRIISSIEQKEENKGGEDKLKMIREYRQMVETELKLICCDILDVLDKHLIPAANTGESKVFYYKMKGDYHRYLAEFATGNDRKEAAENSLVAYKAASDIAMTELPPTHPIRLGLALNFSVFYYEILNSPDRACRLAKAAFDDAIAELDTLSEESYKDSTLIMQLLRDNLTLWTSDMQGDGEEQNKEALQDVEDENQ
Protocol: as §1, §2

[1] = target: T5, 14-3-3σ-ΔC (C-terminally truncated human 14-3-3σ) (human, UniProt P31947 1-231); experiment: MST
T5 chain: T3 sequence (P31947 1-231 limits assumed)

14-3-3 epsilon = target: T6, 14-3-3 epsilon (Homo sapiens); experiment: MST
T6 chain: T4 sequence (P62258 1-255)

14-3-3 theta = target: T7, 14-3-3 theta (Homo sapiens); experiment: MST
T7 chain: T2 sequence (P27348 1-245)

[2] = label-free MST, 0.6 µM 14-3-3 protein, 25 mM MES pH 6.5, 5 mM MgCl2, 5 mM CaCl2, 25°C, Kd from duplicate measurements

CC[C@H](C)[C@H](NC(=O)[C@H](CO)NC(=O)[C@H](CCCNC(=N)N)NC(=O)[C@H](CCCNC(=N)N)NC(=O)CN)C(=O)N[C@@H](CO)C(=O)N[C@@H](Cc1ccccc1)C(=O)N[C@@H](CO)C(=O)N[C@H](C(=O)NCC(=O)N[C@@H](C)C(=O)O)C(C)C [Sirt3^S103] (H-GRRSISFSVGA-OH)
Affinity estimates by MicroScale Thermophoresis, 14-3-3 isoform gamma (Kd) (14-3-3 isoform gamma): aggr.
Affinity estimates by MicroScale Thermophoresis, 14-3-3 isoform theta (Kd) (14-3-3 isoform theta; [2]): none
Affinity estimates by MicroScale Thermophoresis, 14-3-3 isoform sigma (Kd) (14-3-3σ-ΔC): none

CC[C@H](C)[C@H](NC(=O)[C@H](CO)NC(=O)[C@H](CCCNC(=N)N)NC(=O)[C@H](CCCNC(=N)N)NC(=O)CN)C(=O)N[C@@H](COP(=O)(O)O)C(=O)N[C@@H](Cc1ccccc1)C(=O)N[C@@H](CO)C(=O)N[C@H](C(=O)NCC(=O)N[C@@H](C)C(=O)O)C(C)C [Sirt3^pS103] (H-GRRSI[pS]FSVGA-OH)
Affinity estimates by MicroScale Thermophoresis, 14-3-3 isoform gamma (Kd) (14-3-3 isoform gamma): aggr.
Kd (14-3-3 isoform epsilon): > 267 µM
Kd (14-3-3 isoform theta): 52 µM
Kd (14-3-3σ-ΔC): 2.1 ± 1.1 µM

CC[C@H](C)[C@H](NC(=O)[C@H](CO)NC(=O)[C@@H](N)CCCNC(=N)N)C(=O)N[C@@H](CO)C(=O)N[C@@H](Cc1ccccc1)C(=O)N[C@@H](COP(=O)(O)O)C(=O)N[C@H](C(=O)NCC(=O)N[C@@H](C)C(=O)N[C@@H](CO)C(=O)N[C@@H](CO)C(=O)O)C(C)C [Sirt3^pS105] (H-RSISF[pS]VGASS-OH)
Affinity estimates by MicroScale Thermophoresis, 14-3-3 isoform gamma (Kd) (14-3-3 isoform gamma): aggr.
Kd (14-3-3 isoform epsilon): > 215 µM
Kd (14-3-3 isoform theta): 60 µM
Kd (14-3-3σ-ΔC): 19.4 ± 3 µM
Affinity estimates by MicroScale Thermophoresis, 14-3-3 isoform sigma (Kd) (14-3-3σ-ΔC): none

CC(C)[C@H](NC(=O)CNC(=O)[C@H](CS)NC(=O)[C@H](COP(=O)(O)O)NC(=O)[C@@H](NC(=O)[C@H](CS)NC(=O)[C@H](CCCNC(=N)N)NC(=O)[C@@H](NC(=O)[C@@H](N)CCCCN)[C@@H](C)O)[C@@H](C)O)C(=O)N[C@H](C(=O)N[C@@H](C)C(=O)O)C(C)C [Sirt5 S168] (H-KTRCT[pS]CGVVA-OH; N-terminus and C-terminus assumed)
Affinity estimates by MicroScale Thermophoresis, 14-3-3 isoform epsilon (Kd) (14-3-3 isoform epsilon; [2]): aggr.
Affinity estimates by MicroScale Thermophoresis, 14-3-3 isoform theta (Kd) (14-3-3 isoform theta; [2]): aggr.

C[C@H](NC(=O)[C@@H]1CCCN1C(=O)[C@H](COP(=O)(O)O)NC(=O)[C@@H](NC(=O)[C@@H]1CCCN1C(=O)[C@H](CCCNC(=N)N)NC(=O)[C@H](CCC(=O)O)NC(=O)[C@@H](N)CCCNC(=N)N)[C@@H](C)O)C(=O)N1CCC[C@H]1C(=O)N[C@@H](Cc1c[nH]cn1)C(=O)N[C@@H](CCCNC(=N)N)C(=O)O [Sirt6^pS338] (H-RERPT[pS]PAPHR-OH)
Kd (14-3-3 isoform epsilon; label-free MST, 0.6 µM 14-3-3 protein, 25 mM MES pH 6.5, 5 mM MgCl2, 5 mM CaCl2, 25°C, Kd from duplicate measurements, read-out: Affinity estimates by MicroScale Thermophoresis, 14-3-3 isoform epsilon (Kd)): 19 µM

C[C@H](NC(=O)[C@@H]1CCCN1C(=O)[C@H](CO)NC(=O)[C@@H](NC(=O)[C@@H]1CCCN1C(=O)[C@H](CCCNC(=N)N)NC(=O)[C@H](CCC(=O)O)NC(=O)[C@H](CCCNC(=N)N)NC(=O)[C@@H](N)CCCCN)[C@@H](C)OP(=O)(O)O)C(=O)N1CCC[C@H]1C(=O)N[C@@H](Cc1c[nH]cn1)C(=O)O [Sirt6^pT337] (H-KRERP[pT]SPAPH-OH)
Kd (14-3-3 isoform epsilon): > 420 µM

CC(C)C[C@H](NC(=O)[C@H](CC(=O)O)NC(=O)[C@H](C)NC(=O)[C@H](C)NC(=O)[C@H](COP(=O)(O)O)NC(=O)[C@@H](NC(=O)[C@H](CO)NC(=O)[C@H](CCCNC(=N)N)NC(=O)CNC(=O)[C@@H](N)CCCCN)C(C)C)C(=O)N[C@@H](CO)C(=O)O [Sirt7 S136] (H-KGRSV[pS]AADLS-OH)
Affinity estimates by MicroScale Thermophoresis, 14-3-3 isoform epsilon (Kd) (14-3-3 isoform epsilon; [2]): none
Kd (14-3-3 isoform theta; label-free MST, 0.6 µM 14-3-3 protein, 25 mM MES pH 6.5, 5 mM MgCl2, 5 mM CaCl2, 25°C, Kd from duplicate measurements, read-out: Affinity estimates by MicroScale Thermophoresis, 14-3-3 isoform theta (Kd)): 30 µM

KTRCT[pS]CGVVA (cysteine pairing not given here) [Sirt5 pS168]
Kd [1]: > 329 µM

RERPT[pS]PAPHR [Sirt6^pS338 phospho-endecamer peptide]
Kd [1]: 24 µM
Kd (14-3-3 epsilon): 19 µM

KRERP[pT]SPAPH [Sirt6^pT336 phospho-endecamer peptide]
Kd [1]: 12 µM
Kd (14-3-3 epsilon): > 420 µM

RSISF[pS]VGASS (also: phosphoserine at 105 (place in chain not given here)) [Sirt3^pS105 phospho-endecamer peptide]
Kd (14-3-3 epsilon): > 215 µM
Kd (14-3-3 theta): 60 µM

KGRSV[pS]AADLS [Sirt7 pS136, listing 1 of 2 here]
Kd [1]: 49 µM

KGRSV[pS]AADLS [Sirt7 pS136, listing 2 of 2 here]
Kd (14-3-3 theta): 30 µM
